Assay results reported in US20220370416A1, “COMPOUNDS AND METHODS FOR TARGETED DEGRADATION OF KRAS” (Arvinas Operations, Inc., priority 2020, published 2022).

Key:
Assay type in all cases: cell-based
[1] = target: T1, KRAS^G12C (Homo sapiens, UniProt P01116, G12C); assay: KRAS^G12C degradation by immunoblot in NCI-H23 cells; design: MRTX849-VHL bifunctional compounds engage and degrade endogenous KRAS^G12C in NCI-H2030 cells; endogenous in cells; host or cells: NCI-H2030, NCI-H358, MIA PaCa-2, SW1573, NCI-H23; conditions: for KRAS, two-way ANOVA significance vs DMSO: FIG. 9B
Procedure: (§1) NCI-H2030 (CRL-5914), MIA PaCa-2 (CRL-1420), NCI-H23 (CRL-5800), NCI-H358 (CRL-5807), and HCT-116 (CCL-247) cells were obtained from ATCC, expanded immediately, and frozen down. Vials were thawed and used within 20 passages. SW1573 cells were a gift from Arvinas and were handled in the same manner. NCI-H2030, NCI-H23, and NCI-H358 were cultured in RPMI (ATCC30-2001) supplemented with 10% FBS (Biological Industries; cat. no. S1480) and 1% Penicillin-Streptomycin (ThermoFisher; cat. no. 15140122). HCT-116 cells were maintained in high glucose DMEM (ThermoFisher; cat. no. 11965084) supplemented as above. MIA PaCa-2 cells were cultured in high glucose DMEM supplemented with 10% FBS, 2.5% horse serum (ThermoFisher; cat. no. 26050-088; lot 2109875), and 1% Penicillin-Streptomycin. SW1573 cells were maintained in DMEM/F12 Nutrient Mix with GlutaMAX supplement (ThermoFisher; cat. no. 10565018) with 10% FBS and 1% Penicillin-Streptomycin added. DPBS (ThermoFisher; cat. no. 14190250) was used to wash cells and 0.25% Trypsin-EDTA (ThermoFisher; cat. no. […]) was used to detach cells for passaging. […] The VHL ligand was generously provided by Arvinas.
(§2) Between 2.5×10^5 and 6.0×10^5 cells were seeded into 6-well plates (Corning; cat. no. 353046). The next day, media was removed and cells were treated with 2.5 μM LC-2 for 1, 2, 4, 8, 12, or 24 hours. […] For 24-hour time course experiments, cells were treated at the indicated times and concurrently lysed in RIPA buffer supplemented as described previously. For longer time course experiments and time courses in which cells were treated with LC-2 or LC-2 Epimer, cells were concurrently treated with either compound, then lysed by scraping in RIPA buffer at the indicated time points.
(§3) Between 2.5×10^5 and 5.0×10^5 cells were seeded into 6-well plates. The next day cells were pretreated with DMSO, 500 μM or 1 mM VHL ligand, 1 μM epoxomicin, 1 μM […], or 100 nM […] bafilomycin A1 for 1 hour. Media was then removed and cells were treated with DMSO, 2.5 μM LC-2 plus DMSO, 2.5 μM LC-2 Epimer plus DMSO, or co-treated with 2.5 μM LC-2 and the corresponding competitor/inhibitor. H2030 cells were treated for 4 hours and H23 cells were treated for 24 hours, after which cells were lysed by scraping in RIPA buffer supplemented as described previously.
(§4) Cell lysates were clarified at 21000×g for 15 mins at 4° C. Protein levels were quantified using a 50:1 mixture of bicinchoninic acid solution (Millipore Sigma; cat. no. B9643) and 4% (w/v) copper(II) sulfate solution (Millipore Sigma; cat. no. C2284) incubated at 37° C. for 30 mins. Absorbance values at 560 nm were read on an EnVision 2101 Multilabel Reader (PerkinElmer). Proteins were separated using 26 well Criterion TGX precast 4-15% (cat. no. 5671085) or 8-16% (cat. no. 5671105) gradient midi gels. After separation, proteins were transferred to nitrocellulose or PVDF membranes at 76 V for 2 hours at 4° C. Blots were then blocked in 5% milk in tris-buffered saline with Tween-20 (TBST; 20 mM Tris, 150 mM NaCl, 0.02% Tween-20). After blocking, blots were incubated in primary antibody overnight (12-18 hours) at 4° C. or for 2 hours at room temperature with mild agitation at the manufacturer's indicated dilution in either 5% milk or 5% BSA in TBST. Blots were then washed thrice with TBST for 5 mins at room temperature. After washing, blots were incubated with 1:5,000-1:10,000 of donkey anti-rabbit (GE Life Sciences; NA934) or sheep anti-mouse (GE Life Sciences; NA931) secondary antibody diluted in 5% milk for 1 hour at room temperature with mild agitation. Blots were again washed thrice with TBST for 5 mins. Chemiluminescent signal was generated using Amersham ECL Prime Western Blotting Detection Reagant (GE Life Sciences; cat. no. RPN2232) or SuperSignal West Femto Maximum Sensitivity Substrate (ThermoFisher; cat. no. 34095). Images were obtained using a Bio-Rad ChemiDoc Imager.

[2] = target: T1, KRAS^G12C; assay: Engagement and degradation of endogenous KRAS^G12C in NCI-H2030 cells (blot quantitation); design: MRTX849-VHL bifunctional compounds engage and degrade endogenous KRAS^G12C in NCI-H2030 cells; endogenous in cells; host or cells: NCI-H2030; conditions: dose response (FIG. 2B)
[3] = target: T1, KRAS^G12C; assay: KRAS^G12C engagement and degradation by immunoblot in NCI-H2030 cells; design: MRTX849-VHL bifunctional compounds engage and degrade endogenous KRAS^G12C in NCI-H2030 cells; endogenous in cells; host or cells: NCI-H2030, NCI-H358, MIA PaCa-2, SW1573, NCI-H23; conditions: for rescue of LC-2 induced KRAS^G12C degradation by inhibitor: NCI-H2030, 1 μM inhibitor before 2.5 μM LC-2
Procedure: as §1, §2, §3, §4

With `CO/C1=C\C(C)=C\[C@@H](C)[C@@H](O)[C@@H](C)C/C(C)=C/C=C/[C@H](OC)[C@@H]([C@@H](C)[C@@H](O)[C@H](C)[C@@]2(O)C[C@@H](O)[C@H](C)[C@@H](C(C)C)O2)OC1=O` [BafA1, bafilomycin A1, reference compound] the “rescue of LC-2 induced KRAS^G12C degradation by inhibitor” value (“rescue … by inhibitor” below) ([1]; NCI-H23, pre-treatment before LC-2) was “unable to rescue”.
In the case of `C=C(F)C(=O)N1CCN(c2nc(OC[C@@H]3CCCN3CCC(=O)NCCOCCOCCC(=O)N[C@H](C(=O)N3C[C@H](O)C[C@H]3C(=O)NCc3ccc(-c4scnc4C)cc3)C(C)(C)C)nc3c2CCN(c2cccc4cccc(Cl)c24)C3)C[C@@H]1CC#N` [LC-1, (2S,4R)-1-((S)-2-(tert-butyl)-16-((S)-2-(((7-(8-chloronaphthalen-1-yl)-4-((S)-3-(cyanomethyl)-4-(2-fluoroacryloyl)piperazin-1-yl)-5,6,7,8-tetrahydropyrido[3,4-d]pyrimidin-2-yl)oxy)methyl)pyrrolidin-1-yl)-4,14-dioxo-7,10-dioxa-3,13-diazahexadecanoyl)-4-hydroxy-N-(4-(4-methylthiazol-5-yl)benzyl)pyrrolidine-2-carboxamide], the “engagement of KRAS^G12C” value [2] is reported as “engages KRAS^G12C in a dose dependent manner”, the “KRAS, two-way ANOVA significance vs DMSO” value ([1]; NCI-H23, 0.1 μM) is reported as “N.S” and the “KRAS, two-way ANOVA significance vs DMSO” value ([1]; NCI-H23, 10 μM) is reported as “N.S”. For the same compound, the “effect on KRAS protein levels” value ([3]; 10 μM, compound screen (FIG. 2C)) was “increased KRAS protein levels”, the “KRAS, two-way ANOVA significance vs DMSO” value ([3]; NCI-H2030, 10 μM, FIG. 9A) was “* (* p < 0.05)” and the “KRAS engagement (band shift)” value ([3]; NCI-H2030, 24 hours, at 1, 2.5, 10, and 25 μM) was “clear band shift”. For the same compound, the “reduction in KRAS levels” value ([3]; NCI-H2030, 24 hours, increasing concentrations) was “small, non-significant reduction”.
In the case of `NS(=O)(=O)OC[C@@H]1C[C@@H](n2ccc3c(N[C@H]4CCc5ccccc54)ncnc32)C[C@@H]1O` [MLN924, reference compound], the “rescue … by inhibitor” value [3] is reported as “rescued KRAS^G12C levels”.
`CC[C@H](C)[C@H](NC(=O)[C@H]([C@@H](C)CC)N(C)C(C)=O)C(=O)N[C@H](C(=O)N[C@@H](CC(C)C)C(=O)[C@@]1(C)CO1)[C@@H](C)O` [epoxomicin, reference compound] was tested, and the “rescue … by inhibitor” value [3] was “rescued KRAS^G12C levels”.
